From paper PMC11952234, “Functional profiling of synthetic camel milk-derived peptides with implication in glucose transport and diabetes” (PLOS One, 2025)
Where “and” joins values, the source holds several entries; their conditions need not be identical. Identical values can stand only once. Like-named read-outs stand apart in the source and are kept apart here. Marks after values point to notes of the source that are not given here. Residues, ends and D or L forms follow the SMILES beside them.

Tests used:
[1] = tested on: insulin receptor (IR); insulin-induced IR-Rluc/IRS1-YFP BRET in HEK293 cells; assay: BRET assay of IR activation, peptides combined with insulin; assay type: cell-based, human; details: for insulin-induced BRET, % of insulin's response in the vehicle, Average: Average of Experiments 1-7; for insulin-induced BRET, % of insulin's response in the vehicle, Average / insulin-induced BRET, % of insulin's response in the vehicle / % of maximal BRET (insulin-induced): 1 μM insulin + 0.1 mg/ml peptide; for insulin-induced BRET, % of insulin's response in the vehicle, Average / insulin-induced BRET, % of insulin's response in the vehicle: HEK293, minimal data set for Figure 2; for % of maximal BRET (insulin-induced) / profile on insulin-dependent BRET response in combined treatment (in words): HEK293 cells; for % of maximal BRET (insulin-induced): 1 hour, 37°C, % of insulin's response in the vehicle taken as 100%, mean ± SD of five to seven independent experiments in triplicate; for profile on insulin-dependent BRET response in combined treatment (in words): 0.1 mg/ml peptide + 1 μM insulin, compared to insulin alone (Vehicle)
Experimental: (§1) HepG2 and HEK293 cells were maintained at 37°C, 5% CO2 in complete RPMI and Dulbecco’s modified Eagle’s medium (DMEM), respectively, containing 0.3 mg/ml glutamine, 100 IU/ml penicillin, and 100 µg/ml streptomycin) supplemented with 10% fetal calf serum (Gibco, Carlsbad, CA, USA). The transient transfection in HEK293 cells was carried out in 75 cm flask containing 10^7 cells using Lipofectamine 2000 and 5 µg of IR-Rluc and 5 µg of IRS1-YFP (for BRET and phosphorylation experiments) as previously described. All assays were performed 48 hours post-transfection.
(§2) BRET technology was used for IR activation and its interaction with IRS1 as previously described. […] Following treatments, 10 μl of Coelenterazine h was added to a final concentration of 5 µ M and BRET measurements were carried out using the Tristar 2 multi-label plate reader (Berthold, Germany), allowing luminescence recording and signal integration at 480 nm and 540 nm.
For BRET, the data were normalized by taking as 100% of the maximal insulin-induced BRET signal in the vehicle and analyzed using GraphPad Prism software (San Diego, CA, USA). Statistical analyses were performed statistical significance between the different treatments and conditions as indicated in the figures and tables and their captions. […] The significance is indicated in the figures by stars (****p-value < 0.0001, ***p-value < 0.001, ** p-value < 0.01, * p-value < 0.05), and the absence of stars means non-significant (p-value > 0.05). However, the two-way ANOVA was used for multiple comparisons to determine the statistical significance between the different peptides when compared to each other in the different assays as described in the tables. In this case, the different letters indicate statistically significant effects (p-value < 0.05), while the same letters indicate no significant difference between the different treatments compared to each other.

[2] = target: T1, insulin receptor (IR); interaction of IR-Rluc with IRS1-YFP in HEK293 cells (Homo sapiens, UniProt P06213); assay: BRET assay of IR activation (IR-Rluc/IRS1-YFP), single treatment, dose-response; assay type: cell-based; details: HEK293, 1 hour, 37°C, minimal data set for Figure 1, average
T1 construct: expressed in transfected cells; host or cells: HEK293 cells, transient co-transfection; plasmids provided by Dr. Tarik Issad (Cochin Institute, Paris)
T1 sequence (P06213 28-758 limits assumed): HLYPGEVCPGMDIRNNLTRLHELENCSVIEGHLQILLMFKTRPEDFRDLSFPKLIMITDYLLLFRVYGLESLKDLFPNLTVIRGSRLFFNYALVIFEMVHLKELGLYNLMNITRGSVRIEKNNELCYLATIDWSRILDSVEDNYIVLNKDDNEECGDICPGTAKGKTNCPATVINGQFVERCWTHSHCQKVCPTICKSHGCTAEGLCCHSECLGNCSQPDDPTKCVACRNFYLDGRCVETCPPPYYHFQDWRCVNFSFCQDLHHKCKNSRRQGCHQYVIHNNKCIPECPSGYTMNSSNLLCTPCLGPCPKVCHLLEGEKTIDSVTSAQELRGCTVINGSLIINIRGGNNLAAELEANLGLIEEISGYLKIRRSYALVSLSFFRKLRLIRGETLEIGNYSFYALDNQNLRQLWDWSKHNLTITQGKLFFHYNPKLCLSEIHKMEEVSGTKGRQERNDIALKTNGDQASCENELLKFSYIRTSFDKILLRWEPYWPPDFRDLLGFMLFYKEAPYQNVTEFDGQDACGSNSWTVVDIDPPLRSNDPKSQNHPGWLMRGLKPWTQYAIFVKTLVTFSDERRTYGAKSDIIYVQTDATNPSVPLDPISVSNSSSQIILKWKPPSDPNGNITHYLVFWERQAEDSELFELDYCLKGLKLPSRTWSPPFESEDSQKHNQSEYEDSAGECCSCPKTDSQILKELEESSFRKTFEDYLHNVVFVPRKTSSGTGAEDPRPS
T1 sequence (P06213 763-1382 limits assumed): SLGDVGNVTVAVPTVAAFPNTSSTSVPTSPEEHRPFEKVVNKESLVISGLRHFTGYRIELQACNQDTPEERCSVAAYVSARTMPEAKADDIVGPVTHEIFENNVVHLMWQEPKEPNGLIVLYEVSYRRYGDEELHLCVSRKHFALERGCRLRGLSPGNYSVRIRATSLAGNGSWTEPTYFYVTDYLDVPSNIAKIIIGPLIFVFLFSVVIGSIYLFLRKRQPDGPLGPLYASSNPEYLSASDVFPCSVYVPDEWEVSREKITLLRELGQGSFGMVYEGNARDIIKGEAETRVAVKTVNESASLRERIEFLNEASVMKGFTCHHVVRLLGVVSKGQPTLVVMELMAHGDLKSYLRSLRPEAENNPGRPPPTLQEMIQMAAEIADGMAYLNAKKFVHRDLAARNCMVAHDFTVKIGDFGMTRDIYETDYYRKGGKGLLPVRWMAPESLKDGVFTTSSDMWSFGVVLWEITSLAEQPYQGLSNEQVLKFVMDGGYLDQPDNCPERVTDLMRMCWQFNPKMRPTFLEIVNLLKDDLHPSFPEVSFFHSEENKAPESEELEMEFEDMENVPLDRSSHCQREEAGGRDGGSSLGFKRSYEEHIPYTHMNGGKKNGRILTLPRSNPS
Experimental: as §1, §2
Statistical analyses were performed statistical significance between the different treatments and conditions as indicated in the figures and tables and their captions. […] The significance is indicated in the figures by stars (****p-value < 0.0001, ***p-value < 0.001, ** p-value < 0.01, * p-value < 0.05), and the absence of stars means non-significant (p-value > 0.05). However, the two-way ANOVA was used for multiple comparisons to determine the statistical significance between the different peptides when compared to each other in the different assays as described in the tables.

[3] = tested on: HepG2 cells; assay: Glucose uptake assay (Glucose Uptake-Glo) in HepG2 cells; assay type: cell-based, human; details: 1 hour, 37°C; for glucose uptake, specific luminescence signal, Average: Average of Experiments 1-5, HepG2, 0.1 mg/ml peptide or 1 μM insulin, minimal data set for Figure 5; for % of glucose uptake: HepG2 cells, 0.1 mg/ml peptide or 1 μM insulin, % of insulin's response taken as 100%, mean ± SD of five independent experiments in triplicate
Experimental: Glucose uptake in HepG2 cells was carried out using Glucose Uptake-Glo Assay (Promega). For this, cells seeded in a 96-well white plate (50,000 cells/well) were first washed with PBS and starved in phenol red-, glucose-, and serum-free medium (Dulbecco’s modified Eagle’s medium containing 0.01 mM HEPES, 0.3 mg/ml glutamine, 100 IU/ml penicillin, and 100 µg/ml streptomycin). […] The treatment was removed, and the cells were washed once with PBS and then incubated with 50 μL/well of freshly prepared 2-deoxyglucose (500 μM) for 10 minutes at room temperature. The uptake process was stopped and neutralized, followed by the addition of 50 μl/well of 2-deoxyglucose-6-phosphate (2DG6P) detection reagent and incubation for 15-60 minutes at room temperature. The glucose-6-phosphate dehydrogenase (G6PDH) oxidizes 2DG6P to 6-phosphodeoxygluconate (6PDG) and reduces NADP + to NADPH. The reductase uses NADPH to convert the proluciferin to luciferin, which is then used by Ultra-Glo™ recombinant luciferase to produce luminescence. This luminescence, proportional to the amount of 2-deoxyglucose transported inside the cells upon treatment, was then measured using a 0.3–1 second integration on GloMax® Discover luminometer according to Glucose Uptake-Glo™ protocol.

[4] = tested on: AKT phosphorylation (pAKT-S473) in HepG2 cells; assay: AKT phosphorylation by western blot in HepG2 cells; assay type: cell-based, human; details: 1 μM insulin + 0.1 mg/ml peptide, 10 minutes, 37°C
Experimental: Following treatment, cells were then lysed with RIPA lysis buffer and thereafter centrifuged at 12000 × g for 30 minutes. Thereafter, the extracted cell lysate proteins were quantified using the bicinchoninic acid (BCA) protein assay. To examine the phosphorylation status of IR and AKT, 30-40 μg of proteins were loaded on 10% SDS-PAGE gel followed by western blot using the following antibodies: the mouse monoclonal anti-phospho-IR (pIR-Tyr1334)(1:1000 dilution) and the mouse monoclonal anti-phospho-AKT (pAKT-S473)(1:2000 dilution) as previously described. The corresponding total proteins loaded were also analyzed in parallel using the specific antibodies against the native forms of the different proteins. Densitometry analysis of the different western blots was performed using Image Studio Version 5.2 software from LICOR (Lincoln, Nebraska, USA).

[5] = HEK293, read-out: BRET, % of the maximal response of insulin, Average, peptide 0.001 mg/ml
[6] = HEK293, read-out: BRET, % of the maximal response of insulin, Average, peptide 0.005 mg/ml
[7] = HEK293, read-out: BRET, % of the maximal response of insulin, Average, peptide 0.01 mg/ml
[8] = HEK293, read-out: BRET, % of the maximal response of insulin, Average, peptide 0.05 mg/ml
[9] = HEK293, read-out: BRET, % of the maximal response of insulin, Average, peptide 0.1 mg/ml
[10] = HEK293, read-out: BRET, % of the maximal response of insulin, Average, peptide 0.5 mg/ml
[11] = HEK293, read-out: BRET, % of the maximal response of insulin, Average, peptide 1 mg/ml

| Compound | insulin-induced BRET, % of insulin's response in the vehicle, Average [1] | insulin-induced BRET, % of insulin's response in the vehicle ([1]; Experiment 1) | insulin-induced BRET, % of insulin's response in the vehicle ([1]; Experiment 2) | insulin-induced BRET, % of insulin's response in the vehicle ([1]; Experiment 3) | insulin-induced BRET, % of insulin's response in the vehicle ([1]; Experiment 4) | insulin-induced BRET, % of insulin's response in the vehicle ([1]; Experiment 5) | insulin-induced BRET, % of insulin's response in the vehicle ([1]; Experiment 6) | insulin-induced BRET, % of insulin's response in the vehicle ([1]; Experiment 7) | % of maximal BRET (insulin-induced) [1] | profile on insulin-dependent BRET response in combined treatment (in words) [1] | Emax [2, 5] [%] | Emax [2, 6] [%] | Emax [2, 7] [%] | Emax [2, 8] [%] | Emax [2, 9] [%] | Emax [2, 10] [%] | Emax [2, 11] [%] | glucose uptake, specific luminescence signal, Average [3] | % of glucose uptake [3] | insulin-induced AKT phosphorylation, combined treatment (in words) [4] |
| --- | --- | --- | --- | --- | --- | --- | --- | --- | --- | --- | --- | --- | --- | --- | --- | --- | --- | --- | --- | --- |
| CC(C)C[C@H](NC(=O)[C@H](Cc1ccccc1)NC(=O)[C@@H]1CCCN1C(=O)[C@H](CCCNC(=N)N)NC(=O)[C@@H](N)CC(C)C)C(=O)O [Peptide P1, LRPFL] (H-LRPFL-OH) | 103.6 | 73.6 | 47.0 | 66.9 | 125.9 | 98.2 | 190.8 | 122.6 | 104 ± 18^a % | non-efficient | 10.1 | 16.5 | 37.6 | 43 | 58.5 | 56.7 | 55.3 | 1669300 | 66 ± 18^b % | – |
| CC(C)C[C@H](N)C(=O)N1CCC[C@H]1C(=O)N[C@H](C(=O)N1CCC[C@H]1C(=O)N[C@@H](CCC(N)=O)C(=O)O)C(C)C [Peptide P3, LPVPQ] (H-LPVPQ-OH; N-terminus and C-terminus assumed) | 110.8 | 81.5 | 130.9 | 81.8 | 135.0 | 93.0 | 152.3 | 100.8 | 111 ± 11^a % | non-efficient | 6 | 11 | 19.1 | 48.8 | 47.7 | 46.3 | 41.4 | 1788200 | 71 ± 12^b % | – |
| CC(C)C[C@H](N)C(=O)N1CCC[C@H]1C(=O)N[C@H](C(=O)N1CCC[C@H]1C(=O)O)C(C)C [Peptide P6, LPVP] (H-LPVP-OH; N-terminus and C-terminus assumed) | 140.3 | 115.3 | 195.4 | 142.3 | 129.2 | – | 119.3 | – | 135 ± 13^d % | potentiating | 18.3 | 25.4 | 35 | 44.5 | 45.6 | 47.9 | 40.4 | 3425500 | 135 – 150% and 136 ± 16^d % | slightly potentiated |
| CC[C@H](C)[C@H](NC(=O)[C@@H]1CCCN1C(=O)[C@@H](N)Cc1ccc(O)cc1)C(=O)O [Peptide P9, YPI] (H-Tyr-Pro-Ile-OH; N-terminus and C-terminus assumed) | 108.5 | 96.6 | 93.8 | 107.9 | 136.4 | 113.3 | 127.9 | 83.8 | 109 ± 7^a % | non-efficient | 3.3 | 14.7 | 24.7 | 29.3 | 40.2 | 39.3 | 31.7 | 2361900 | – | – |
| Human insulin [reference compound] | – | – | – | – | – | – | – | – | 100^a % | – | – | – | – | – | – | – | – | 2522500 | 100^a % | – |
